From patent US7449476B2, “Tetrahydrocarboline antiviral agents” (priority 2004, dated 2008)

system: HIV-1; assay: Single-round infectious HIV-1 luciferase reporter virus infection of HeLa CD4 cells; format: cell-based; conditions: Human immunodeficiency virus 1, HeLa, 72 h
Method: Cells: (virus production) human embryonic kidney cell line, 293, was propagated in Dulbecco's Modified Eagle Medium (Invitrogen, Carlsbad, Calif.) containing 10% fetal Bovine serum (FBS, Sigma, St. Louis, Mo.); (virus infection) human epithelial cell line, HeLa, expressing the HIV-1 receptor CD4 was propagated in Dulbecco's Modified Eagle Medium (Invitrogen, Carlsbad, Calif.) containing 10% fetal Bovine serum (FBS, Sigma, St. Louis, Mo.) and supplemented with 0.2 mg/mL Geneticin (Invitrogen, Carlsbad, Calif.).
Virus: single-round infectious reporter virus was produced by co-transfecting human embryonic kidney 293 cells with an HIV-1 envelope DNA expression vector and a proviral cDNA containing an envelope deletion mutation and the luciferase reporter gene inserted in place of HIV-1 nef sequences. Transfections were performed using lipofectAMINE PLUS reagent as described by the manufacturer (Invitrogen, Carlsbad, Calif.).
Experiment: HeLa CD4 cells were plated in 96 well plates at a cell density of 1×10^4 cells per well in 100 μl Dulbecco's Modified Eagle Medium containing 10% fetal Bovine serum and incubated overnight. Compound was added in a 2 μl dimethylsulfoxide solution, so that the final assay concentration would be ≦10 μM. Single-round infectious reporter virus (100 μL) in Dulbecco's Modified Eagle Medium was then added to the plated cells and compound at an approximate multiplicity of infection (MOI) of 0.01, resulting in a final volume of 200 μl per well. Virally-infected cells were incubated at 37 degrees Celsius, in a CO2 incubator, and harvested 72 h after infection. Viral infection was monitored by measuring luciferase expression from viral DNA in the infected cells using a luciferase reporter gene assay kit, as described by the manufacturer (Roche Molecular Biochemicals, Indianapolis, Ind.). Infected cell supernatants were removed and 50 μl of lysis buffer was added per well. After 15 minutes, 50 μl of freshly-reconstituted luciferase assay reagent was added per well. Luciferase activity was then quantified by measuring luminescence using a Wallac microbeta luminescence reader.
The percent inhibition for each compound was calculated by quantifying the level of luciferase expression in cells infected in the presence of each compound as a percentage of that observed for cells infected in the absence of compound and subtracting such a determined value from 100. The effective concentration for fifty percent inhibition (EC50) was calculated with Microsoft Excel Xlfit curve fitting software. For each compound, curves were generated from percent inhibition calculated at 10 different concentrations by using a four paramenter logistic model (model 205).

Row | SMILES | EC50
1 | COc1ncc(OC)c2c(C(=O)C(=O)N3CCc4c(c5ccccc5n4-c4ccccc4)C3)c[nH]c12 [Example 1, 1-(5-Phenyl-1,3,4,5-tetrahydro-pyrido[4,3-b]indol-2-yl)-2-(4,7-dimethoxy-6-azaindol-3-yl)-ethane-1,2-dione] | < 1 µM
2 | COc1ncc(OC)c2c(C(=O)C(=O)N3CCc4[nH]c5ccccc5c4C3)c[nH]c12 [Example 2, 1-(1,3,4,5-Tetrahydro-pyrido[4,3-b]indol-2-yl)-2-(4,7-dimethoxy-6-azaindol-3-yl)-ethane-1,2-dione] | > 5 µM
3 | COc1ncc(OC)c2c(C(=O)C(=O)N3CCc4[nH]c5ccc(F)cc5c4C3)c[nH]c12 [Example 3, 1-(8-Fluoro-1,3,4,5-tetrahydro-pyrido[4,3-b]indol-2-yl)-2-(4,7-dimethoxy-6-azaindol-3-yl)-ethane-1,2-dione] | > 5 µM
4 | COc1ncc(OC)c2c(C(=O)C(=O)N3CCc4c(c5cc(F)ccc5n4C)C3)c[nH]c12 [Example 4, 1-(8-Fluoro-5-methyl-1,3,4,5-tetrahydro-pyrido[4,3-b]indol-2-yl)-2-(4,7-dimethoxy-6-azaindol-3-yl)-ethane-1,2-dione] | < 1 µM
5 | COc1ncc(OC)c2c(C(=O)C(=O)N3CCc4[nH]c5ccc(C(F)(F)F)cc5c4C3)c[nH]c12 [Example 5, 1-(8-Trifluoromethyl-1,3,4,5-tetrahydro-pyrido[4,3-b]indol-2-yl)-2-(4,7-dimethoxy-6-azaindol-3-yl)-ethane-1,2-dione] | 1 to 5 µM
6 | COc1cnc(-n2cnc(C)n2)c2[nH]cc(C(=O)C(=O)N3CCc4c(c5ccccc5n4-c4ccccc4)C3)c12 [Example 6, 1-(5-Phenyl-1,3,4,5-tetrahydro-pyrido[4,3-b]indol-2-yl)-2-[4-methoxy-7-(3-methyl-1,2,4-triazol-1-yl)-6-azaindol-3-yl]-ethane-1,2-dione] | < 1 µM
7 | COc1cnc(-n2ncnc2C)c2[nH]cc(C(=O)C(=O)N3CCc4c(c5ccccc5n4-c4ccccc4)C3)c12 [Example 7, 1-(5-Phenyl-1,3,4,5-tetrahydro-pyrido[4,3-b]indol-2-yl)-2-[4-methoxy-7-(5-methyl-1,2,4-triazol-1-yl)-6-azaindol-3-yl]-ethane-1,2-dione] | < 1 µM
8 | COc1cnc(-n2cnc(C)n2)c2[nH]cc(C(=O)C(=O)N3CCc4c(c5cc(F)ccc5n4-c4ccccc4)C3)c12 [Example 8, 1-(8-Fluoro-5-phenyl-1,3,4,5-tetrahydro-pyrido[4,3-b]indol-2-yl)-2-[4-methoxy-7-(3-methyl-1,2,4-triazol-1-yl)-6-azaindol-3-yl]-ethane-1,2-dione] | < 1 µM
9 | COc1cnc(-n2ccnn2)c2[nH]cc(C(=O)C(=O)N3CCc4c(c5cc(F)ccc5n4-c4ccccc4)C3)c12 [Example 9, 1-(8-Fluoro-5-phenyl-1,3,4,5-tetrahydro-pyrido[4,3-b]indol-2-yl)-2-[4-methoxy-7-(1,2,3-triazol-1-yl)-6-azaindol-3-yl]-ethane-1,2-dione] | < 1 µM
